Assay results from patent US10538555B2, “Macrocyclic inhibitors of the PD-1/PD-L1 and CD80(B7-1)/PD-L1 protein/protein interactions” (BRISTOL-MYERS SQUIBB COMPANY, priority 2014, dated 2020).
pIC50: −log10 of the molar value. Where a SMILES comes first, the peptide text is derived from it. Bridges are numbered along the chain shown (N, C = ends). [ ]: non-standard residue; d: D form. Morpholine(3S-CO) = O=C(O)[C@@H]1COCCN1; Phe(4-F) = N[C@@H](Cc1ccc(F)cc1)C(=O)O; Hyp = O=C(O)[C@@H]1C[C@@H](O)CN1; NMeF = CN[C@@H](Cc1ccccc1)C(=O)O; NMeNle = CCCC[C@H](NC)C(=O)O; dPip = O=C(O)[C@H]1CCCCN1; NMeA = CN[C@@H](C)C(=O)O; Sar = CNCC(=O)O

Each compound was assayed against T1, Human PD-L1/PD-1 (Homo sapiens, UniProt Q9NZQ7) (assay: HTRF Human PD-L1/PD-1 binding assay (PD-1-Ig/PD-L1-His)). Conditions: PD-L1-His 10 nM, PD-1-Ig 20 nM; class symbol; read-out: HTRF Human PD-L1/PD-1 Binding Assay IC50 Range.
T1 construct: TVMV protease cleavage site (C); made in house; host or cells: HEK293T cells
Outline: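 Compound preincubated 15 min with PD-L1-His (10 nM final), then PD-1-Ig (20 nM final) added for 15 min in dPBS with 0.1% BSA and 0.05% Tween-20. Detection by Eu-cryptate anti-Ig (1 nM) and APC anti-His (20 nM) after 30 min; 665/620 nm HTRF ratio. Proteins expressed in HEK293T.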

T1 sequence (Q9NZQ7 with tags, fused parts or gaps): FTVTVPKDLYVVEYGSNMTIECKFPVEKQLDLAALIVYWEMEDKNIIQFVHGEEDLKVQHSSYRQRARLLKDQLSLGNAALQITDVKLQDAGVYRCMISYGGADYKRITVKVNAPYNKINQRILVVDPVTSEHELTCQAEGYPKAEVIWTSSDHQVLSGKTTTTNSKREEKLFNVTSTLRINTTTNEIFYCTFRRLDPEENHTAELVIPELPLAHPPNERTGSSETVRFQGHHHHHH

pIC50, 7.00 to 8.00:
CCCC[C@H]1C(=O)N(C)[C@@H](CCCC)C(=O)N[C@@H](C)C(=O)N[C@H](C(=O)NCC(N)=O)CSCC(=O)N[C@@H](Cc2ccc(O)cc2)C(=O)N(C)[C@@H](C)C(=O)N[C@@H](CC(N)=O)C(=O)N2CCC[C@H]2C(=O)N[C@@H](Cc2cnc[nH]2)C(=O)N[C@@H](CCC(N)=O)C(=O)N2CCNC[C@H]2C(=O)N[C@@H](Cc2c[nH]c3ccccc23)C(=O)N[C@@H](CO)C(=O)N[C@@H](Cc2c[nH]c3ccccc23)C(=O)N1C [Example 1278], CCCC[C@H]1C(=O)N[C@@H](CCC(N)=O)C(=O)N2CCCC[C@@H]2C(=O)N[C@@H](Cc2c[nH]c3ccccc23)C(=O)N[C@@H](Cc2ccc(O)cc2)C(=O)N[C@@H](CC(C)C)C(=O)N[C@H](C(=O)NCC(N)=O)CSCC(=O)N[C@@H](Cc2ccc(F)cc2)C(=O)N(C)[C@@H](Cc2ccccc2)C(=O)N(C)[C@@H](CCCC)C(=O)N2CCC[C@@H]2C(=O)N[C@@H](CC(=O)O)C(=O)N[C@@H](C(C)C)C(=O)N1C [Example 9216] ({CH2CO}-[Phe(4-F)][NMeF][NMeNle][dP]DV[NMeNle]Q[dPip]WYLCG-NH2; thioether N-13), CCCC[C@H]1C(=O)N2CCC[C@@H]2C(=O)N[C@@H](CO)C(=O)N[C@@H](C(C)C)C(=O)N(C)[C@@H](Cc2ccccc2)C(=O)N[C@@H](Cc2ccc(O)cc2)C(=O)N(C)CC(=O)N[C@@H](Cc2c[nH]c3ccccc23)C(=O)N[C@@H](Cc2ccc(O)cc2)C(=O)N[C@@H](CC(C)C)C(=O)N[C@H](C(=O)NCC(N)=O)CSCC(=O)N[C@@H](Cc2ccccc2)C(=O)N(C)[C@@H](Cc2ccccc2)C(=O)N1C [Example 10062] ({CH2CO}-F[NMeF][NMeNle][dP]SV[NMeF]Y[Sar]WYLCG-NH2; thioether N-13), CCCC[C@H]1C(=O)N(C)CC(=O)N[C@@H](CC(N)=O)C(=O)N[C@@H](C(C)C)C(=O)N(C)[C@@H](Cc2ccccc2)C(=O)N[C@@H](Cc2ccc(O)cc2)C(=O)N(C)CC(=O)N[C@@H](Cc2c[nH]c3ccccc23)C(=O)N[C@@H](Cc2ccc(O)cc2)C(=O)N[C@@H](CC(C)C)C(=O)N[C@H](C(=O)NCC(N)=O)CSCC(=O)N[C@@H](Cc2ccccc2)C(=O)N(C)[C@@H](Cc2ccccc2)C(=O)N1C [Example 3237] ({CH2CO}-F[NMeF][NMeNle][Sar]NV[NMeF]Y[Sar]WYLCG-NH2; thioether N-13), CCCC[C@H]1C(=O)N(C)[C@@H](CCCC)C(=O)N[C@@H](CCCNC(=N)N)C(=O)N[C@H](C(=O)NCC(N)=O)CSCC(=O)N[C@@H](Cc2ccc(O)cc2)C(=O)N(C)[C@@H](C)C(=O)N[C@@H](CC(=O)O)C(=O)N2CCC[C@H]2C(=O)N[C@@H](Cc2c[nH]cn2)C(=O)N[C@@H](CCCCN)C(=O)N2C[C@H](O)C[C@H]2C(=O)N[C@@H](Cc2c[nH]c3ccccc23)C(=O)N[C@@H](CCCCN)C(=O)N[C@@H](Cc2csc3ccccc23)C(=O)N1C [Example 5256], CCCC[C@H]1C(=O)N(C)[C@@H](CCCC)C(=O)N[C@@H](C)C(=O)N[C@H](C(=O)NCC(N)=O)CSCC(=O)N[C@@H](Cc2ccc(O)cc2)C(=O)N(C)[C@@H](C)C(=O)N[C@@H](CC(N)=O)C(=O)N2CCOC[C@H]2C(=O)N[C@@H](Cc2cnc[nH]2)C(=O)N[C@@H](CCC(N)=O)C(=O)N2C[C@H](O)C[C@H]2C(=O)N[C@@H](Cc2c[nH]c3ccccc23)C(=O)N[C@@H](CO)C(=O)N[C@@H](Cc2c[nH]c3ccccc23)C(=O)N1C [Example 1280] ({CH2CO}-Y[NMeA]N[Morpholine(3S-CO)]HQ[Hyp]WSW[NMeNle][NMeNle]ACG-NH2; thioether N-14)
